From patent US9957247B2, “SecA inhibitors and methods of making and using thereof” (Georgia State University Research Foundation, Inc., priority 2012, dated 2018)
Values after ≈ are worked out from the molar mass of the structure shown. Where two headings read alike, the source gives them in different places.

Experiments:
EcSecA = EcSecA (Escherichia coli, UniProt P10408); test: cell-based
B. subtilis 168 = test: Bacteriostatic effect, liquid microdilution, B. subtilis 168; assay type: cell-based; conditions: Bacillus subtilis, Example 2
BsSecA = BsSecA (Bacillus subtilis, UniProt P28366); test: cell-based; parameters: species or system B. subtilis; conditions: Ion channel, IC50, BsSecA, Table 5
S. aureus Mu50 = test: Bacteriostatic effect, S. aureus Mu50; conditions: for Bacteriostatic MIC95, S. aureus Mu50: Table 2; for MIC: Staphylococcus aureus
B. anthracis Sterne = test: microbe, parasite or virus in culture; assay type: cell-based; conditions: for MIC: Bacillus anthracis, read-out: Bacteriostatic MIC95, B. anthracis Sterne
[1] = Ion channel, IC50, EcSecA, Table 5
[2] = MU50, read-out: MIC95 against drug resistant S. aureus Mu50
[3] = MU50, read-out: Bacteriostatic effect MIC, S. aureus Mu50, Table 10 and Example 4
[4] = MU50, read-out: Bacteriostatic MIC95, S. aureus Mu50, Table 2

EcSecA, sequence (P10408 whole entry): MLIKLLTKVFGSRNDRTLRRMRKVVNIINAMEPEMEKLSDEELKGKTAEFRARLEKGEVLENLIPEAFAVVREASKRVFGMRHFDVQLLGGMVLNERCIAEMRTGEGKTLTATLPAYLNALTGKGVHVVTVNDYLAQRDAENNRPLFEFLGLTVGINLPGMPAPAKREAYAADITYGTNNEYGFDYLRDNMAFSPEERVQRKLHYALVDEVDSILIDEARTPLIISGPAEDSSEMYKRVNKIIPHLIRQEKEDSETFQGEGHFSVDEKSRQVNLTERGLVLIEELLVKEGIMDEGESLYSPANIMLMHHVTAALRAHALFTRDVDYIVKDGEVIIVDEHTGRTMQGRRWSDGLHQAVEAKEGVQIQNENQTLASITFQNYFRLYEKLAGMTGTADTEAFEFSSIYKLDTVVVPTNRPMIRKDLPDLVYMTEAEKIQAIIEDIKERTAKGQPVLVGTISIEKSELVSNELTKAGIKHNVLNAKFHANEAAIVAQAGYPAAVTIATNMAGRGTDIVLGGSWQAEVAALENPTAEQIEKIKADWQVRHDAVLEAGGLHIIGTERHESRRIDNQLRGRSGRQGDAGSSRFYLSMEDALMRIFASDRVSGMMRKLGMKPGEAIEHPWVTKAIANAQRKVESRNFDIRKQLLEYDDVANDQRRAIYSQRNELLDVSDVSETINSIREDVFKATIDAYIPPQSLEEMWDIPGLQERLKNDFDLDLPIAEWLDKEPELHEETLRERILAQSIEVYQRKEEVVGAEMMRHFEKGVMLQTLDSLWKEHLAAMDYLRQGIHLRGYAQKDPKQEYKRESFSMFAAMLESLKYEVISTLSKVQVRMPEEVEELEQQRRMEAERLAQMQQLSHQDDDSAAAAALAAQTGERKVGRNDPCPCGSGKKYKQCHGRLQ
BsSecA, sequence (P28366 whole entry): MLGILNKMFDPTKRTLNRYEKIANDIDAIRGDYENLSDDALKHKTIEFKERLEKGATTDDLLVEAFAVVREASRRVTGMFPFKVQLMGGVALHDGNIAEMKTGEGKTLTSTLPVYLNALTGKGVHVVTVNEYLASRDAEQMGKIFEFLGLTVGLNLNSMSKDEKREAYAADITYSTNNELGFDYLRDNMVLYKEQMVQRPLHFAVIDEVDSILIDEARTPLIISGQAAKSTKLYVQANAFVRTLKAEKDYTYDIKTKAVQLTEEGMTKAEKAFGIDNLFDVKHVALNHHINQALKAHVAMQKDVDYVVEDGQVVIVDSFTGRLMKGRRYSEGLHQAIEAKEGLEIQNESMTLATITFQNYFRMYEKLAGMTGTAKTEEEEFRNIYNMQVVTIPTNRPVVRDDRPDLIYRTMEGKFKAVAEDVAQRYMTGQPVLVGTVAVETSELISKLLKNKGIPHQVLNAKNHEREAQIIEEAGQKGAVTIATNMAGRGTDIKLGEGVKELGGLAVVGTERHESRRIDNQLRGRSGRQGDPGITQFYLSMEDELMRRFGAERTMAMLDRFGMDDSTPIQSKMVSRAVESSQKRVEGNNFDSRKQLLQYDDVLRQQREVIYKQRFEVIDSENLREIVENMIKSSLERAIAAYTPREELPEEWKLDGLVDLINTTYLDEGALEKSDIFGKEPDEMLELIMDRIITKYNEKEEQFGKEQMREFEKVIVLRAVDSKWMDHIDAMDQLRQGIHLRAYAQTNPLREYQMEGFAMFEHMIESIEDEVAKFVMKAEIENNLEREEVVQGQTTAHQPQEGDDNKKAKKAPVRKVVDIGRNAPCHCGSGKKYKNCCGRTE

Oc1cc2c(cc1I)C(C1CCCC1)c1cc(I)c(O)c(I)c1O2 (centres unmarked) [Compound 23c]
IC50 (EcSecA): 2200 nM | MIC (B. subtilis 168): 6 µM (≈ 3.96 µg/mL) | IC50 (BsSecA): 2800 nM

O=C(N[C@H](CO)[C@H](O)c1ccc([N+](=O)[O-])cc1)C(Cl)Cl [Chloramphenic]
Bacteriostatic MIC95, S. aureus Mu50 (S. aureus Mu50): >40 µg/mL | Bacteriostatic MIC95, B. anthracis Sterne (B. anthracis Sterne): 10 µg/mL

CCCCCCC1c2ccc(O)cc2Oc2cc(O)ccc21 [Compound 22c, 9-Hexyl-9H-xanthene-3,6-diol]
IC50 (EcSecA; [1]): 2300 nM | MIC (B. subtilis 168): 13 µM (≈ 3.88 µg/mL) | IC50 (BsSecA): 2500 nM

CN[C@H](CC(C)C)C(=O)N[C@H]1C(=O)N[C@@H](CC(N)=O)C(=O)N[C@H]2C(=O)N[C@H]3C(=O)N[C@H](C(=O)N[C@H](C(=O)O)c4cc(O)cc(O)c4-c4cc3ccc4O)[C@H](O)c3ccc(c(Cl)c3)Oc3cc2cc(c3O[C@@H]2O[C@H](CO)[C@@H](O)[C@H](O)[C@H]2O[C@H]2C[C@](C)(N)[C@H](O)[C@H](C)O2)Oc2ccc(cc2Cl)[C@H]1O [Vancomycin]
MIC (S. aureus Mu50; MU50, read-out: Bacteriostatic MIC95, S. aureus Mu50): 5 µg/mL | MIC (S. aureus Mu50; MU50, read-out: Bacteriostatic effect MIC, S. aureus Mu50): 7.8 µg/mL | MIC (S. aureus Mu50; [2]): 5 µM | MIC (B. anthracis Sterne): 2.5 µg/mL (≈ 1.73 µM)

CCn1cc(C(=O)O)c(=O)c2cc(F)c(N3CCNCC3)cc21 [Norfloxacin]
MIC (S. aureus Mu50; [3]): 250 µg/mL

CC(C)C1c2ccc(O)cc2Oc2cc(O)ccc21 [Compound 22b, 9-Isopropyl-9H-xanthene-3,6-diol]
IC50 (EcSecA): 4300 nM | MIC (B. subtilis 168): 75 µM (≈ 19.2 µg/mL) | IC50 (BsSecA): 4900 nM

Oc1ccc2c(c1)Oc1cc(O)ccc1C2C1CCCC1 [Compound 22a, 9-Cyclopentyl-9H-xanthene-3,6-diol]
IC50 (EcSecA; [1]): 3400 nM | MIC (B. subtilis 168): 25 µM (≈ 7.06 µg/mL) | IC50 (BsSecA): 3000 nM

CO[C@H]1/C=C/O[C@@]2(C)Oc3c(C)c(O)c4c(O)c(c(/C=N/N5CCN(C)CC5)c(O)c4c3C2=O)NC(=O)/C(C)=C\C=C\[C@H](C)[C@H](O)[C@@H](C)[C@@H](O)[C@@H](C)[C@H](OC(C)=O)[C@@H]1C [Rifampicin]
MIC (S. aureus Mu50; [3]): > 1000 µg/mL

Oc1c(I)cc2c(c1I)Oc1c(cc(I)c(O)c1I)C2C1CCCC1 [Compound 23b, 9-Cyclopentyl-2,4,5,7-tetraiodo-9H-xanthene-3,6-diol]
IC50 (EcSecA): 2500 nM | MIC (B. subtilis 168): 6 µM (≈ 4.72 µg/mL) | IC50 (BsSecA): 3800 nM

CC1(C)S[C@@H]2[C@H](NC(=O)[C@H](N)c3ccccc3)C(=O)N2[C@H]1C(=O)O [Ampicillin]
MIC (S. aureus Mu50; [4]): 7.8 µg/mL | MIC (S. aureus Mu50; [3]): 1000 µg/mL | MIC (B. anthracis Sterne): > 20 µg/mL

CC[C@H]1OC(=O)[C@H](C)[C@@H](O[C@H]2C[C@@](C)(OC)[C@@H](O)[C@H](C)O2)[C@H](C)[C@@H](O[C@@H]2O[C@H](C)C[C@H](N(C)C)[C@H]2O)[C@](C)(O)C[C@@H](C)C(=O)[C@H](C)[C@@H](O)[C@]1(C)O [Erythromycin]
MIC (S. aureus Mu50; [4]): > 500 µg/mL | MIC (S. aureus Mu50; [3]): > 1250 µg/mL | MIC (S. aureus Mu50; [2]): > 100 µM | MIC (B. anthracis Sterne): 0.3 µg/mL (≈ 0.409 µM)

Oc1c(Br)cc2c(c1Br)Oc1c(cc(Br)c(O)c1Br)C2C1CCCC1 [Compound 23a, 2,4,5,7-Tetrabromo-9-cyclopentyl-9H-xanthene-3,6-diol]
IC50 (EcSecA): 2300 nM | MIC (B. subtilis 168): 22 µM (≈ 13.2 µg/mL) | IC50 (BsSecA): 2400 nM

NC[C@H]1O[C@H](O[C@H]2[C@H](O)[C@@H](O[C@H]3O[C@H](CO)[C@@H](O)[C@H](N)[C@H]3O)[C@H](N)C[C@@H]2N)[C@H](O)[C@@H](O)[C@@H]1O [Kanamycin]
MIC (S. aureus Mu50; [3]): 1000 µg/mL | MIC (S. aureus Mu50; [2]): > 100 µM

Polymyxin B
Bacteriostatic MIC95, S. aureus Mu50 (S. aureus Mu50): 15 µg/mL | Bacteriostatic effect MIC, S. aureus Mu50 (S. aureus Mu50; Table 10 and text of Example 4): 31.3 µg/mL | Bacteriostatic MIC95, B. anthracis Sterne (B. anthracis Sterne; Table 2): 10 µg/mL

Gentamycin
Bacteriostatic MIC95, S. aureus Mu50 (S. aureus Mu50): >500 µg/mL | Bacteriostatic MIC95, B. anthracis Sterne (B. anthracis Sterne; Table 2): 5 µg/mL

CN(C)[C@@H]1C(O)=C(C(N)=O)C(=O)[C@@]2(O)C(O)=C3C(=O)c4c(O)cccc4[C@@](C)(O)[C@H]3C[C@@H]12 [Tetracycline]
MIC (S. aureus Mu50; [4]): 200 µg/mL | MIC (S. aureus Mu50; [3]): 62.5 µg/mL | MIC (S. aureus Mu50; [2]): > 100 µM | MIC (B. anthracis Sterne): 0.1 µg/mL (≈ 0.225 µM)

CC(C)C1c2cc(I)c(O)c(I)c2Oc2c1cc(I)c(O)c2I [Compound 23d, 2,4,5,7-Tetraiodo-9-isopropyl-9H-xanthene-3,6-diol]
IC50 (EcSecA): 2800 nM | MIC (B. subtilis 168): 6 µM (≈ 4.56 µg/mL) | IC50 (BsSecA): 2500 nM
